Measurements published in patent US10206867B2, “Alcoholic extract of aerial parts of Solidago virgaurea subsp. alpestris, method of production thereof, and cosmetic or dermatological composition containing it” (CHANEL PARFUMS BEAUTE, priority 2015, dated 2019).

Assays:
[1] = tested on: Primary human keratinocytes (KC); assay: Primary human keratinocytes (KC) under Paraquat stress: cell counts and qPCR of MMP1, p16INK4a; assay type: cell-based; conditions: for Mean number of cells counted, corrected for the cell division factor: 37500 cells seeded on day 0
Experimental: Primary human keratinocytes derived from neonatal foreskin of individual donors (KC) were purchased from CellSystems (Troisdorf, Germany) and cultured in a KC growth medium (KGM, Clonetics, Gaithersburg, USA) supplemented with 0.1 ng/ml of recombinant human EGF, 5 μg/ml insulin, 0.5 μg/ml of hydrocortisone, 0.4% of bovine pituitary extract, 50 μg/ml of gentamicin and 50 ng/ml of amphotericin B. The RNA was isolated using the RNeasy 96 system ([…]), and 900 ng of total RNA was reverse-transcribed with the iScript cDNA Synthesis Kit (Biorad). qPCR was performed using the LightCycler 480 and the LightCycler 480 SYBR Green I Master (Roche, Basle, Switzerland). Expression of the target genes was normalized relative to expression of β-2 microglobulin. The sequences of the primers are as follows (5′-3′): B2Mf […] (SEQ ID NO:11); B2Mr: […] (SEQ ID NO:12);
The cells are seeded for the stress experiments on day 0 at 1500 cells/cm^2 and treated on days 2, 5 and 6 with Paraquat (PQ) (80 μm) for 24 hours. Treatment with Goldenrod was carried out on days 1 and 4 on untreated cells or cells treated with Paraquat.

[2] = Antioxidant activity, pholasin ABEL chemiluminescence test, superoxides; assay type: biochemical
Experimental: To determine the capacity of Goldenrod for trapping free radicals (hydroxyls, halogenated derivatives, peroxynitrites and superoxide radicals), i.e. its antioxidant capacity, chemiluminescence tests dependent on pholasin ABEL®1 were used (Knight Scientific Limited) according to the manufacturer's instructions. Briefly, various concentrations of ingredients were incubated with pholasin, a well known photoprotein that emits light when it binds to free radicals. D-Mannitol, albumin, vitamin E and L-ascorbic acid were used as positive controls for determining the capacity of the extract for trapping hydroxyl radicals, halogenated derivatives, peroxynitrites and superoxides, respectively. […] The antioxidant capacity of the ingredient is expressed as the percentage reduction of the luminescence peak of Pholasin observed during the assay in the presence and in the absence of the active ingredient ±SD, with the untreated control represented at 0%.

[3] = Antioxidant activity, pholasin ABEL chemiluminescence test, hydroxyl radicals; assay type: biochemical
Experimental: To determine the capacity of Goldenrod for trapping free radicals (hydroxyls, halogenated derivatives, peroxynitrites and superoxide radicals), i.e. its antioxidant capacity, chemiluminescence tests dependent on pholasin ABEL®1 were used (Knight Scientific Limited) according to the manufacturer's instructions. Briefly, various concentrations of ingredients were incubated with pholasin, a well known photoprotein that emits light when it binds to free radicals. D-Mannitol, albumin, vitamin E and L-ascorbic acid were used as positive controls for determining the capacity of the extract for trapping hydroxyl radicals, halogenated derivatives, peroxynitrites and superoxides, respectively.
All the determinations were repeated 5 times and the mean values were determined. The antioxidant capacity of the ingredient is expressed as the percentage reduction of the luminescence peak of Pholasin observed during the assay in the presence and in the absence of the active ingredient ±SD, with the untreated control represented at 0%.

MMP3 = biological target: T1, MMP3 (Homo sapiens, UniProt P08254); assay: MMP3 activity by fluorometric assay; assay type: biochemical; conditions: 5 mM; percentage activity relative to untreated control (100%)
T1 construct: purchased Biomol SE-109
T1 sequence (P08254 100-272 limits assumed): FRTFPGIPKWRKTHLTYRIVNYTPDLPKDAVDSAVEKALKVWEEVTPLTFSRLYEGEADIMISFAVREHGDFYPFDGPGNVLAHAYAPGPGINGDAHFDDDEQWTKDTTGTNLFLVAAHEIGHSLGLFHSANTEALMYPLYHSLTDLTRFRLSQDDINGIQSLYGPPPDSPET
Experimental: (§1) To evaluate the effect of Goldenrod on the activity of MMP3 and MMP9, the enzymes (Biomol SE-109 and SE-244, respectively) were incubated with different concentrations of Goldenrod, each concentration in quintuplicate. The enzymatic reaction was induced by adding the fluorescent substrate specific to each MMP enzyme, dissolved in DMSO (Bachem H-2300, M-2055). The enzymatic reaction was monitored by spectrophotometry for one hour and the fluorescence was measured after excitation/emission at wavelengths of 360/460 nm for MMP3, or 320/405 nm for MMP9. The results are expressed as the mean of the replicates ±SD and are shown in […] activity of the MMPs relative to the untreated control, which represents 100%. As control, EDTA was used for inhibiting the activity of the MMPs.

MMP9 = biological target: T2, MMP9 (Homo sapiens, UniProt P14780); assay: MMP9 activity by fluorometric assay; assay type: biochemical; conditions: 5 mM; percentage activity relative to untreated control (100%)
T2 construct: purchased Biomol SE-244
T2 sequence (P14780 107-444 limits assumed): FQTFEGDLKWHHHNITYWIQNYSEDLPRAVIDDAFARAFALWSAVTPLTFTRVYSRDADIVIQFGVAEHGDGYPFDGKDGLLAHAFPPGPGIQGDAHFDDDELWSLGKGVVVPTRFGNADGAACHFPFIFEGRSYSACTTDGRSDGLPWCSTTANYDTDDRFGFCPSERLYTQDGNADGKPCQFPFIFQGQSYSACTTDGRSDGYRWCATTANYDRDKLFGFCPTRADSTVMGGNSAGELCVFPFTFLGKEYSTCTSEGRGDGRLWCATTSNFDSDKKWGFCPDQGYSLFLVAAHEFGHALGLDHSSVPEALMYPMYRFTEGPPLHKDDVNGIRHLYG
Experimental: as §1

For C[n+]1ccc(-c2cc[n+](C)cc2)cc1 [Paraquat], the “Mean number of cells counted, corrected for the cell division factor” value ([1]; D3, single treatment) was 405,000 cells, the “Mean number of cells counted, corrected for the cell division factor” value ([1]; D7, single treatment) was 546,666 cells and the “Expression of MMP1” value ([1]; treatment with Paraquat alone) was “induces”. For the same molecule, the “Expression of p16INK4a” value ([1]; treatment with Paraquat alone) was “induces”.

O=C1O[C@H]([C@@H](O)CO)C(O)=C1O [L-ascorbic acid] showed a Mean % inhibition ([2]; 10 μmol/L) of 26.4 ± 3.5%, a Mean % inhibition ([2]; 20 μmol/L) of 43.9 ± 1.4% and a Mean % inhibition ([2]; 40 μmol/L) of 64.8 ± 0.8%. For the same molecule, the Mean % inhibition ([2]; 60 μmol/L) was 75.3 ± 1% and the Mean % inhibition ([2]; 80 μmol/L) was 82.4 ± 1.8%.

With OC[C@@H](O)[C@@H](O)[C@H](O)[C@H](O)CO [D-Mannitol] the Mean % inhibition ([3]; 0.8 mM) was 59.9 ± 3.6%, the Mean % inhibition ([3]; 1 mM) was 76.1 ± 14% and the Mean % inhibition ([3]; 2 mM) was 82.6 ± 14.8%. It also gave a Mean % inhibition ([3]; 4 mM) of 92.6 ± 4.7% and a Mean % inhibition ([3]; 6 mM) of 95.1 ± 0.3%.

In the case of O=C(O)CN(CCN(CC(=O)O)CC(=O)O)CC(=O)O [EDTA], the “Enzyme activity MMP3” value (MMP3) is reported as 4.3 ± 5.3% and the “Enzyme activity MMP9” value (MMP9) is reported as 0 ± 0.9%.
